Biological target: T1, Serine protease 1 (Bos taurus, UniProt P00760)
T1 sequence (P00760 whole entry): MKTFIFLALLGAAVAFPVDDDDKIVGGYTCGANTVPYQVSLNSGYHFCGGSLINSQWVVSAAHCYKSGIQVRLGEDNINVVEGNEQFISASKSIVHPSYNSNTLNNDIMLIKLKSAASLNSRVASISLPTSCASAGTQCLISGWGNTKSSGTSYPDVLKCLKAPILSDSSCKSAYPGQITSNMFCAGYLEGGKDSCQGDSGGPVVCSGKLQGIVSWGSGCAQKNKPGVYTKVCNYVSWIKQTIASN
Assay: Enzyme Assay and Determination of the Inhibition Constants.
Conditions: not given

Ki [nM] | Structure (SMILES)
> 2900 | N=C(N)c1ccc(F)c(CN2CC[C@H](NS(=O)(=O)c3ccc(-c4cccnc4)s3)C2=O)c1 [4-fluoro-3-[((3S)-2-oxo-3-{[(5-pyridin-3-ylthien-2-yl)sulfonyl]amino}pyrrolidin-1-yl)methyl]benzenecarboximidamide]
> 2900 | N=C(N)c1cccc(CN2CC[C@H](NS(=O)(=O)c3ccc(-c4ccncc4)cc3)C2=O)c1 [3-{[(3S)-2-oxo-3-{[4-(pyridin-4-yl)benzene]sulfonamido}pyrrolidin-1-yl]methyl}benzene-1-carboximidamide]
1900 | N=C(N)c1cccc(CN2CC[C@H](NS(=O)(=O)c3ccc(-c4ccon4)s3)C2=O)c1 [3-[3-(S)-(5-Isoxazol-3-ylthiophene-2-ylsulfonylamino)-2-oxopyrrolidin-1-ylmethyl]benzamidine]
2100 | N=C(N)c1cccc(CN2CC[C@H](NS(=O)(=O)c3ccc(-c4ccccn4)s3)C2=O)c1 [3-{[(3S)-2-oxo-3-{[5-(pyridin-2-yl)thiophene-2-]sulfonamido}pyrrolidin-1-yl]methyl}benzene-1-carboximidamide]
> 2900 | COc1nccc(-c2ccc(S(=O)(=O)N[C@H]3CCN(Cc4cccc(C(=N)N)c4)C3=O)s2)n1 [3-{[(3S)-3-{[5-(2-methoxypyrimidin-4-yl)thiophene-2-]sulfonamido}-2-oxopyrrolidin-1-yl]methyl}benzene-1-carboximidamide]
> 2900 | N=C(N)c1cccc(CN2CC[C@H](NS(=O)(=O)c3ccc(-c4cc[n+]([O-])cc4)cc3)C2=O)c1 [4-(4-{[(3S)-1-[(3-carbamimidoylphenyl)methyl]-2-oxopyrrolidin-3-yl]sulfamoyl}phenyl)-1-oxidopyridin-1-ium]
> 2900 | N=C(N)c1cccc(CN2CC[C@H](NS(=O)(=O)c3ccc(-c4cccnc4)cc3)C2=O)c1 [3-{[(3S)-2-oxo-3-{[4-(pyridin-3-yl)benzene]sulfonamido}pyrrolidin-1-yl]methyl}benzene-1-carboximidamide]
1500 | N=C(N)c1ccc(N)c(CN2CC[C@H](NS(=O)(=O)c3ccc(-c4cccnc4)s3)C2=O)c1 [4-amino-3-{[(3S)-2-oxo-3-{[5-(pyridin-3-yl)thiophene-2-]sulfonamido}pyrrolidin-1-yl]methyl}benzene-1-carboximidamide]
> 2900 | C[n+]1ccc(-c2ccc(S(=O)(=O)N[C@H]3CCN(Cc4cccc(C(=N)N)c4)C3=O)cc2)cc1 [4-(4-{[(3S)-1-[(3-carbamimidoylphenyl)methyl]-2-oxopyrrolidin-3-yl]sulfamoyl}phenyl)-1-methylpyridin-1-ium]
> 2900 | Cn1ccnc1-c1ccc(S(=O)(=O)N[C@H]2CCN(Cc3cccc(C(=N)N)c3)C2=O)cc1 [3-{[(3S)-3-{[4-(1-methyl-1H-imidazol-2-yl)benzene]sulfonamido}-2-oxopyrrolidin-1-yl]methyl}benzene-1-carboximidamide]
> 2900 | N=C(N)c1cccc(CN2CC[C@H](NS(=O)(=O)c3ccc(-c4cccnc4)s3)C2=O)c1 [3-[2-Oxo-3-(S)-(5-pyridin-3-ylthiophene-2-ylsulfonylamino)-pyrrolidin-1-ylmethyl]benzamidine]
2900 | N=C(N)c1ccc(O)c(CN2CC[C@H](NS(=O)(=O)c3ccc(-c4ccon4)s3)C2=O)c1 [4-hydroxy-3-{[(3S)-3-{[5-(1,2-oxazol-3-yl)thiophene-2-]sulfonamido}-2-oxopyrrolidin-1-yl]methyl}benzene-1-carboximidamide]
1700 | N=C(N)c1ccc(N)c(CN2CC[C@H](NS(=O)(=O)c3ccc(-c4ccon4)s3)C2=O)c1 [4-Amino-3-[3-(S)-(5-isoxazol-3-ylthiophene-2-ylsulfonylamino)-2-oxopyrrolidin-1-ylmethyl]benzamidine]
> 2900 | N=C(N)c1cccc(CN2CC[C@H](NS(=O)(=O)c3ccc(-c4ccncc4)s3)C2=O)c1 [3-{[(3S)-2-oxo-3-{[5-(pyridin-4-yl)thiophene-2-]sulfonamido}pyrrolidin-1-yl]methyl}benzene-1-carboximidamide]

Same assay, conditions: pH 7.5; 22 °C

Ki [nM] | Structure (SMILES)
> 2900 | COc1ccc2ccc(S(=O)(=O)N[C@H]3CCN(Cc4ccc(O)c(C(=N)N)c4)C3=O)cc2c1 [2-hydroxy-5-{[(3S)-3-[(7-methoxynaphthalene-2-)sulfonamido]-2-oxopyrrolidin-1-yl]methyl}benzene-1-carboximidamide]
> 2900 | N=C(N)c1cccc(CN2CC[C@H](NS(=O)(=O)c3ccc(-c4ccccc4)cc3)C2=O)c1 [3-{[(3S)-2-oxo-3-[(4-phenylbenzene)sulfonamido]pyrrolidin-1-yl]methyl}benzene-1-carboximidamide]
> 2900 | COc1ccc2ccc(S(=O)(=O)N[C@H]3CCN(Cc4cc(N)cc(C(=N)N)c4)C3=O)cc2c1 [3-Amino-5-[3-(S)-(7-methoxynaphthalen-2-ylsulfonylamino)-2-oxopyrrolidin-1-ylmethyl]benzamidine]
305 | COc1ccc2ccc(S(=O)(=O)N[C@H]3CCN(Cc4cc(C(=N)N)ccc4O)C3=O)cc2c1 [4-hydroxy-3-{[(3S)-3-[(7-methoxynaphthalene-2-)sulfonamido]-2-oxopyrrolidin-1-yl]methyl}benzene-1-carboximidamide]
12 | COC(=O)COc1ccc(C(=N)N)cc1CN1CC[C@H](NS(=O)(=O)c2ccc3ccc(OC)cc3c2)C1=O [methyl 2-(4-carbamimidoyl-2-{[(3S)-3-[(7-methoxynaphthalene-2-)sulfonamido]-2-oxopyrrolidin-1-yl]methyl}phenoxy)acetate]
853 | COc1ccc2ccc(S(=O)(=O)N[C@H]3CCN(Cc4cccc(C(=N)N)c4)C3=O)cc2c1 [3-{[(3S)-3-[(7-methoxynaphthalene-2-)sulfonamido]-2-oxopyrrolidin-1-yl]methyl}benzene-1-carboximidamide]
> 2900 | COc1ccc2ccc(S(=O)(=O)N(C)[C@H]3CCN(Cc4cc(C(=N)N)ccc4NC(C)=O)C3=O)cc2c1 [N-(4-carbamimidoyl-2-{[(3S)-3-[(7-methoxynaphthalene-2-)(methyl)sulfonamido]-2-oxopyrrolidin-1-yl]methyl}phenyl)acetamide]
> 2900 | N=C(N)c1cccc(CN2CC[C@H](NS(=O)(=O)c3ccc(-c4ccccn4)cc3)C2=O)c1 [3-{[(3S)-2-oxo-3-{[4-(pyridin-2-yl)benzene]sulfonamido}pyrrolidin-1-yl]methyl}benzene-1-carboximidamide]
299 | COc1ccc2ccc(S(=O)(=O)N[C@H]3CCN(Cc4cc(C(=N)N)ccc4N)C3=O)cc2c1 [4-amino-3-{[(3S)-3-[(7-methoxynaphthalene-2-)sulfonamido]-2-oxopyrrolidin-1-yl]methyl}benzene-1-carboximidamide]
189 | COc1ccc2ccc(S(=O)(=O)N(C)[C@H]3CCN(Cc4cc(C(=N)N)ccc4N)C3=O)cc2c1 [4-amino-3-{[(3S)-3-[(7-methoxynaphthalene-2-)(methyl)sulfonamido]-2-oxopyrrolidin-1-yl]methyl}benzene-1-carboximidamide]
704 | COc1ccc2ccc(S(=O)(=O)N(C)[C@H]3CCN(Cc4cccc(C(=N)N)c4)C3=O)cc2c1 [3-{[(3S)-3-[(7-methoxynaphthalene-2-)(methyl)sulfonamido]-2-oxopyrrolidin-1-yl]methyl}benzene-1-carboximidamide]
> 2900 | COc1ccc2ccc(S(=O)(=O)N[C@H]3CCN(Cc4cc(C(=N)N)ccc4OCC(=O)O)C3=O)cc2c1 [2-(4-carbamimidoyl-2-{[(3S)-3-[(7-methoxynaphthalene-2-)sulfonamido]-2-oxopyrrolidin-1-yl]methyl}phenoxy)acetic acid]

Biological target: Coagulation factor X (Homo sapiens, UniProt P00742)
Sequence (P00742 41-179 limits assumed): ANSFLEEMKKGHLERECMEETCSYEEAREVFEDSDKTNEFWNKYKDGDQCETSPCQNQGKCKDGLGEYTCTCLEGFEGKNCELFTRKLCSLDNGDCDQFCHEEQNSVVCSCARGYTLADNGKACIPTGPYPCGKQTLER
Sequence (P00742 235-488 limits assumed): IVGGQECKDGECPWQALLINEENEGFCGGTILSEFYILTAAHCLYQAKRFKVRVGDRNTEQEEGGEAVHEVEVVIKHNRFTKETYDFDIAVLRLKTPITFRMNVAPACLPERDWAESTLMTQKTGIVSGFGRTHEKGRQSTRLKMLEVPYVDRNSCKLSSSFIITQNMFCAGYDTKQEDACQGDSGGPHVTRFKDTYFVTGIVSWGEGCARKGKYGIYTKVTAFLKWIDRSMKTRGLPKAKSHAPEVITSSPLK
Assay: as above
Conditions: not given

Ki [nM] | Structure (SMILES)
> 1000 | C[n+]1ccc(-c2ccc(S(=O)(=O)N[C@H]3CCN(Cc4cccc(C(=N)N)c4)C3=O)cc2)cc1 [4-(4-{[(3S)-1-[(3-carbamimidoylphenyl)methyl]-2-oxopyrrolidin-3-yl]sulfamoyl}phenyl)-1-methylpyridin-1-ium]
